From PubChem BioAssay (NCI)
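Values below derive from 48-hour exposures of cells grown in 96-well plates, with endpoints linearly interpolated between the two concentrations bracketing the appropriate inhibition level. GI50 is the concentration that inhibits growth by half. The concentration for full growth arrest is given as TGI.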

Tests used:
Assay in all cases: inhibition of tumour cell growth, NCI panel, 48 h
SF-268 CNS = test system: SF-268 CNS
MALME-3M melanoma = test system: MALME-3M melanoma
SK-OV-3 ovarian = test system: SK-OV-3 ovarian
HT29 colon = test system: HT29 colon
HL-60(TB) leukemia = test system: HL-60(TB) leukemia
OVCAR-8 ovarian = test system: OVCAR-8 ovarian
M14 melanoma = test system: M14 melanoma
SW-620 colon = test system: SW-620 colon
SF-539 CNS = test system: SF-539 CNS
HOP-62 NSCLC = test system: HOP-62 NSCLC
TK-10 renal = test system: TK-10 renal
OVCAR-3 ovarian = test system: OVCAR-3 ovarian
SNB-19 CNS = test system: SNB-19 CNS
MCF7 breast = test system: MCF7 breast
A549 NSCLC = test system: A549 NSCLC
RPMI-8226 leukemia = test system: RPMI-8226 leukemia
HCC-2998 colon = test system: HCC-2998 colon
786-0 renal = test system: 786-0 renal
SK-MEL-2 melanoma = test system: SK-MEL-2 melanoma
KM12 colon = test system: KM12 colon
UACC-257 melanoma = test system: UACC-257 melanoma
HOP-92 NSCLC = test system: HOP-92 NSCLC
T-47D breast = test system: T-47D breast
NCI-H460 lung = test system: NCI-H460 lung
CAKI-1 renal = test system: CAKI-1 renal
OVCAR-5 ovarian = test system: OVCAR-5 ovarian
SN12C renal = test system: SN12C renal
K-562 leukemia = test system: K-562 leukemia

Cc1cc(-c2nnc3n2CCCCC3)c(C)n1-c1ccc(Cl)c(Cl)c1
GI50 (SF-268 CNS): 17.8 µM | TGI (SF-268 CNS): 36.6 µM | GI50 (MALME-3M melanoma): 13.8 µM | TGI (MALME-3M melanoma): 30.4 µM | GI50 (SK-OV-3 ovarian): 19.2 µM | TGI (SK-OV-3 ovarian): 45.7 µM | GI50 (HT29 colon): 16 µM | TGI (HT29 colon): 38.1 µM | GI50 (HL-60(TB) leukemia): 20.6 µM | TGI (HL-60(TB) leukemia): 61.2 µM | GI50 (OVCAR-8 ovarian): 15.4 µM | TGI (OVCAR-8 ovarian): 64.1 µM | GI50 (M14 melanoma): 14.9 µM | TGI (M14 melanoma): 33.5 µM | GI50 (SW-620 colon): 17.5 µM | TGI (SW-620 colon): 50.9 µM | GI50 (SF-539 CNS): 16.6 µM | TGI (SF-539 CNS): 32.4 µM | GI50 (HOP-62 NSCLC): 16.8 µM | TGI (HOP-62 NSCLC): 32.4 µM | GI50 (TK-10 renal): 20.1 µM | TGI (TK-10 renal): 65.3 µM | GI50 (OVCAR-3 ovarian): 10.2 µM | TGI (OVCAR-3 ovarian): 23.7 µM | GI50 (SNB-19 CNS): 15.5 µM | TGI (SNB-19 CNS): 47.1 µM | GI50 (MCF7 breast): 4.89 µM | TGI (MCF7 breast): 20.2 µM | GI50 (A549 NSCLC): 16.8 µM | TGI (A549 NSCLC): 65.8 µM | GI50 (RPMI-8226 leukemia): 9.53 µM | TGI (RPMI-8226 leukemia): 39.9 µM | GI50 (HCC-2998 colon): 14 µM | TGI (HCC-2998 colon): 29.3 µM | GI50 (786-0 renal): 22.9 µM | TGI (786-0 renal): 56.7 µM | GI50 (SK-MEL-2 melanoma): 14.9 µM | TGI (SK-MEL-2 melanoma): 31 µM | GI50 (KM12 colon): 16.6 µM | TGI (KM12 colon): 32 µM | GI50 (UACC-257 melanoma): 12.7 µM | TGI (UACC-257 melanoma): 32.3 µM | GI50 (HOP-92 NSCLC): 11.9 µM | TGI (HOP-92 NSCLC): 31.9 µM | GI50 (T-47D breast): 6.03 µM | TGI (T-47D breast): 30.8 µM | GI50 (NCI-H460 lung): 17.4 µM | TGI (NCI-H460 lung): 45.7 µM | GI50 (CAKI-1 renal): 22.3 µM | TGI (CAKI-1 renal): > 100 µM | GI50 (OVCAR-5 ovarian): 39 µM | TGI (OVCAR-5 ovarian): > 100 µM | GI50 (SN12C renal): 14.7 µM | TGI (SN12C renal): 40.1 µM | GI50 (K-562 leukemia): 5.14 µM | TGI (K-562 leukemia): 39.3 µM
